Reference: patent US5585358A, “Derivatives of valproic acid amides and 2-valproenoic acid amides, method of making and use thereof as anticonvulsant agents” (Yissum Research Development Corporation of the Hebrew …, priority 1993, dated 1996)
Read-outs that look alike come from different tables or passages of the source.

Experiments:
[1] = assay type: in vivo, rat; design: key to Latency, Session I / Latency, Session II: latency in seconds for avoiding a potential shock
Description: Test was performed on days 16-17 (session 1) and 22-23 (session 2) after initiation of drug treatment. Better performance is indicated by an increase in avoidance score, a decrease in latency time, and an increase in the number of crossings.
(§1) The studies test for the level of motivation, association and short and long-term memory. The specific studies were the effect of compound 1 on the performance of rats in the locomotor test and passive and active response tests.
The conditioned avoidance response (active avoidance test) of rats was determined in a Hugo-Basile automatic conditioning apparatus, which consists of a shuttle box with two separate floor grids. In this apparatus the rats are conditioned to jump from one side of the box to the other side. The conditioning is a 10 sec stimulus consisting of a light and electric buzzer. […] The session is then repeated with the same rats 7 days later. Experiments were carried out on days 16-17 and 22-23 from the start of drug treatment, and each rat received 60 trials with a 30 sec interval between each trial.
The following parameters were recorded: a) the number of potential shocks successfully avoided; b) the latency response in seconds for avoiding a potential shock; and c) the total number of crossings made throughout the trials. In this test, a better performance is indicated by an increase in the avoidance of an electric shock, a decrease in the latency time to jump to the other side of the cage, and an increase in the number of times the rats crossed to the other side of the cage.
Scores in the active avoidance test (conditioned avoidance response) of
rats treated with compound 1 and related drugs. The tests in the first
session were performed on days 16-17 from initiation of drug
administration. Those in session II were performed on days 22-23, that is
7 days following session I. Number of rats in a group are given in […]

[2] = rat p.o.; literature values; cited from earlier work
[3] = rat p.o.; literature values; N.E. = not effective; cited from earlier work
[4] = mice i.p., literature values, N.E. = not effective, cited from earlier work
[5] = rat p.o.; literature values; cited from earlier work; remark: listed apart in the source
[6] = maximal electroshock (MES) test, rat p.o.; assay type: in vivo; settings: for ED100: Rattus norvegicus, rats, read-out: minimum dose giving full protection against seizures in the MES test
Text: (§2) The first model, the subcutaneous pentylenetetrazol (s.c. Met) seizure threshold test, is a standard screening procedure to show efficacy for agents against absence seizures. The second model, the maximal electroshock (MES) test, is used to show efficacy for antiepileptic agents against generalized seizures. In these studies, convulsions were inhibited or prevented in mice after intraperitoneal (i.p.) administration and/or in rats after oral (p.o.) administration of the compounds.
(§3) N-(2-Propylpentanoyl)glycinamide (hereinafter compound 1) was further tested in two additional models. The third model, electrical kindling of rats, has been known to show efficacy of antiepileptic agents against complex partial seizures that evolve into generalized motor seizures. In these tests, rats were electrically stimulated via corneal electrodes twice daily for approximately 5 days and then once daily for an additional 10 days. Once the seizure criteria, as described by R. J. Racine, et al., Electroenceph. […] In addition, compound 1 was also tested in the subcutaneous bicuculline model (s.c. Bic).
and rats by subcutaneous administration of pentylenetetrazol (s.c. Met
test) or by electrical stimulation (MES test). N.E. = not effective.

[7] = maximal electroshock (MES) test, mice i.p.; assay type: in vivo; settings: for activity in MES model: doses up to 300 mg/kg
Description: Convulsions were induced in mice

[8] = subcutaneous pentylenetetrazol (s.c. Met) seizure threshold test, mice i.p.; assay type: in vivo; settings: for activity in s.c. Met model: doses up to 300 mg/kg
Description: Convulsions were induced in mice

[9] = electrical kindling model, rats p.o.; assay type: in vivo; settings: po; rat p.o.
Text: as §3

[10] = subcutaneous bicuculline model (s.c. Bic), mice; assay type: in vivo
Text: as §3

[11] = neurotoxicity in rats (positional sense test and gait and stance test); assay type: in vivo; settings: rat p.o.
Description: (§4) Neurotoxicity of the claimed agents was also assessed in mice (i.p. adminstration) by the rotorod ataxia test and also in some cases in rats (p.o. administration) by the positional sense test and gait and stance test.

[12] = assay type: in vivo, rat
Description: as §1
In the locomotor test, motor activity was recorded 8 to 9 days after the beginning of drug treatment. Locomotion scores were recorded in cages (25×26cm) having a grid of infra-red beams at 4 cm intervals. Two categories of movements were recorded: small movements (those originating in stationary activities such as grooming and scratching), and big movements (those resulting in ambulation and recorded as the simultaneous crossing of more than two beams). Since rats are nocturnal animals, recordings were usually made between 18:00 PM-6:00 AM.
Activity scores of drugtreated rats, measured in activity cages on days
8-9 after initiation of daily oral dosing with the given drug. Figures ar
number of crossings ± SEM. Number of rats per group are given in […]

[13] = assay type: in vivo, rat; remark: listed apart in the source
Description: Tests were performed on day 10 after drug treatment. Latency, in seconds, represents response time to entry into dark compartment. Maximum latency is 300 sec. Longer latencies represent improved performance. Bars represent mean standard error (SEM).
as §1
To measure passive avoidance responses, tests were performed on days 10, 12, 14, 20, and 26 after initiation of drug treatment. The apparatus consisted of a lit chamber that can be separated from a dark chamber by a sliding door. In the experiment, a rat is placed in a lit chamber for 30 sec, the door is then opened and the rat moves into the dark chamber with latency that is recorded. Upon entry into the dark chamber, the door is shut and a 0.3 mA footshock is delivered for 3 sec. Retention of the experience is determined after 48 hours by repeating the test and recording the latency. The maximum latency was arbitrarily assigned the value of 300 sec. Longer latencies are taken as a measure of improved memory.

[14] = screen for protection against chemically and electrically induced convulsions (at least two models of epilepsy); assay type: in vivo; settings: mice i.p. and/or rats p.o.; MES, s.c. Met, s.c. Bic, electrical kindling
Text: as §2, §3

[15] = cognitive impairment tests in rats (locomotor, passive and active response tests); assay type: in vivo, rat; settings: at minimum dose giving full protection in MES test
Text: A major neurological side effect observed in patients on treatment with antiepileptic agents is cognitive impairment. […] Results from the models used are taken as indicators of major constituents of human cognition.
as §1

in vivo = settings: mouse, ip
[16] = neurotoxicity in mice (rotorod ataxia test)
Description: as §4

[17] = literature values; cited from earlier work
[18] = rat, in vivo, po; cited from earlier work
[19] = mice i.p.; literature values; cited from earlier work
[20] = background literature; cited from earlier work
[21] = median lethal dose in mice; settings: mouse, in vivo, ip
[22] = rats, days 16-17, compound 1 200, carbamazepine 15, Na valproate 500 mg/kg
[23] = rats, days 22-23, compound 1 200, carbamazepine 15, Na valproate 500 mg/kg
[24] = rats, daily oral dosing, days 8-9, compound 1 200 mg/kg, Na Valproate 500 mg/kg, ± SEM

## NC(=O)N1c2ccccc2C=Cc2ccccc21 [Carbamizepine]
[1]; [22]
  Avoidance, Session I: 7 ± 4
  Crossings, Session I: 18 ± 10
  Latency, Session I: 27 ± 2 s
[1]; [23]
  Avoidance, Session II: 2 ± 2
  Crossings, Session II: 11 ± 8
  Latency, Session II: 29 ± 1 s
[2]
  ED50, MES model: 8.5 mg/kg
[3]
  ED50, s.c. MET model: N.E.
[4]
  ED50, s.c. MET model: N.E.
[5]
  ED50, electrical kindling model: 28.9 mg/kg

## CCCC(CCC)C(=O)NCC(N)=O [Compound 1, N-(2-n-Propylpentanoyl)glycinamide]
[6]; po
  ED100: 200 mg/kg
[6]; po, rat p.o., read-out: ED50, MES model
  ED50: 73 mg/kg
[6]; rat p.o.
  Pi (protective index, TD50/ED50), MES model: > 13.7
[6]; rat p.o., vs VPA
  ED50 in MES model, times lower (more efficacious) than VPA: seven
[6]; rat p.o., vs phenytoin
  ED50 in MES model relative to phenytoin: approximately twice
[7]
  PI (protective index, TD50/ED50), MES model: 2.4
[7]; Mus musculus, ip, read-out: ED50, MES model
  ED50: 152 mg/kg
[8]
  PI (protective index, TD50/ED50), s.c. MET model: 2.9
[8]; Mus musculus, ip, read-out: ED50, s.c. MET model
  ED50: 127 mg/kg
[9]
  ED50: 162 mg/kg
[10]
  protection from seizures, s.c. Bic model: full protection from seizures in mice, at a dose that was approximately that of literature values for the ED50 for VPA
[11]; in vivo, po, read-out: TD50 (median neurological toxic dose)
  TD50: > 1000 mg/kg
[11]
  TD50 (median neurological toxic dose): > 1000 mg/kg
[12]; [24]
  Big mov. (activity score), day activity 14.00-20.00 h: 2402 ± 307 number of crossings
  Big mov. (activity score), night activity 20.00-08.00 h: 7217 ± 765 number of crossings
  Total mov. (activity score), day activity 14.00-20.00 h: 7749 ± 1188 number of crossings
  Total mov. (activity score), night activity 20.00-08.00 h: 22568 ± 2209 number of crossings
[12]; rats, vs control
  motor activity in locomotor test: no significant difference in motor activity between the control and compound 1
[13]; rats, day 16, compound 1 200 mg/kg, VPA 500 mg/kg, daily oral
  passive avoidance performance (retention): retained their acquired knowledge to avoid the electric shock as well as the control group
[1]; rats, compared with VPA group, compound 1 200 mg/kg, VPA 500 mg/kg, daily oral
  active avoidance performance: significantly better performance than the VPA treated group
[1]; [22]
  Avoidance, Session I: 14 ± 7
  Crossings, Session I: 38 ± 13
  Latency, Session I: 21 ± 3 s
[1]; [23]
  Avoidance, Session II: 12 ± 7
  Crossings, Session II: 35 ± 9
  Latency, Session II: 22 ± 3 s
[14]
  anticonvulsant activity: showed anticonvulsant activity in rodents in all of the above mentioned tests
[15]
  cognitive impairment compared with VPA: less cognitive impairment than VPA
In vivo
  LD50: > 4000 mg/kg
[16]; mice i.p., vs VPA
  TD50 compared with VPA: significantly higher for compound 1 (less neurotoxic)
[16]; mouse, in vivo, ip
  TD50: 369 mg/kg

## CCCC(CCC)C(=O)O [Na Valproate]
[12]; rat, in vivo
  Big mov. (activity score), day activity 14.00-20.00 h: 2784 ± 352 number of crossings
  Big mov. (activity score), night activity 20.00-08.00 h: 5832 ± 854 number of crossings
  Total mov. (activity score), day activity 14.00-20.00 h: 8963 ± 1554 number of crossings
  Total mov. (activity score), night activity 20.00-08.00 h: 18876 ± 2039 number of crossings
[1]; rat, in vivo
  Avoidance, Session I: 2 ± 3
  Avoidance, Session II: 6 ± 5
  Crossings, Session I: 13 ± 2
  Crossings, Session II: 16 ± 9
  Latency, Session I: 28 ± 0.4
  Latency, Session II: 27 ± 2

## O=C1NC(=O)C(c2ccccc2)(c2ccccc2)N1 [Phenytoin]
[2]
  ED50, MES model: 29.8 mg/kg
[3]
  ED50, s.c. MET model: N.E.
[4]
  ED50, s.c. MET model: N.E.
[17]
  efficacy in s.c. Bic model: not effective
[18]
  TD50 (median neurological toxic dose): > 3000 mg/kg

## CCCC(CCC)C(=O)O [VPA, 2-propylpentanoic acid]
[6]; po
  ED100: 500 mg/kg
[13]; rat, in vivo
  passive avoidance performance (retention): performed much worse
[1]; rat, in vivo
  active avoidance performance compared with control group: worse performance
[2]
  ED50, MES model: 490 mg/kg
[19]
  ED50, MES model: 272 mg/kg
[3]
  ED50, s.c. MET model: 180 mg/kg
[4]
  ED50, s.c. MET model: 146 mg/kg
[4]; listed as Valproic acid
  ED50, s.c. MET model: 149 mg/kg
[5]
  ED50, electrical kindling model: 117 mg/kg
[20]
  adverse effects: considerable adverse effects including hepatotoxicity and teratogenicity
[21]
  LD50: 658 mg/kg

## CCCCCNCC(N)=O [milacemide]
[7]
  activity in MES model: neither valproylglycine nor milacemide was active
[8]
  activity in s.c. Met model: neither valproylglycine nor milacemide was active

## CCCC(CCC)C(=O)NCC(=O)O [valproylglycine]
[7]
  activity in MES model: neither valproylglycine nor milacemide was active
[8]
  activity in s.c. Met model: neither valproylglycine nor milacemide was active
